# Experimental data reported in US9856480B2, “Dnazyme for silencing the expression of EGFR” (DCB-USA LLC, priority 2013, dated 2018).
# Strand notation (5' to 3'): a small letter for the sugar, then the base; units joined by * are phosphorothioate-linked, units joined directly phosphodiester-linked; [ ] holds rarer units or linkages, { } end groups; capitals alone tell only the bases. d = 2'-deoxy (DNA)
# What was measured:
# Format in all cases: cell-based, human
# H1975 cells = experiment: Apoptosis assay (annexin V and PI, flow cytometry); conditions: 100 nM, 48 h
# Method: (§1) H1975 or CL97 was seeded onto 10-cm dish and cultured overnight. Then, cells were separately treated with 100 nM DzControl or DzT790M-1 with lipofectamine 2000 (Invitrogen). After 48 h, cells were collected, double stained by annexin V and PI, and analyzed by flow cytometry following the protocol of Dead cell apoptosis kit from manufacturer (Invitrogen).
# CL97 cells = experiment: Apoptosis assay (annexin V and PI, flow cytometry); conditions: 100 nM, 48 h
# Method: as §1
# wild-type EGFR mRNA = experiment: Quantitative real-time PCR of EGFR mRNA knockdown; conditions: A549 cells; 50, 100, or 150 nM; 48 h
# Method: A549, CL1-5, H1975, or CL97 was seeded onto 6-well at 3×10^5 cells/well and cultured overnight. Then, cells were separately treated with 100 nM DzControl or DzT790M-1 with lipofectamine 2000 (Invitrogen). After 48 h, total mRNA were extracted from DNAzyme-treated cells by Mestrisol following manufacturer's protocol. cDNA were synthesized by using RT III kit with random hexamers as primers (Invitrogen). The PCR primers were synthesized by Genomics BioSci & Tech (Taipei, Taiwan). The sequences of PCR primers are listed as follows: […]
# The parameters for PCR were: 95° C. for 10 min, then 25 cycles of PCR at 95° C. for 30 s, 60° C. for 30 s, and 72° C. for 60 s. 3% agarose gels were used for electrophoresis of PCR products. The intensity of bands were quantified by Image J. Quantitative RT-PCR was performed on 40 ng total mRNA with the LightCycler 480 system (Roche). The PCR mix contained 5 μl of 2× Probe Master mix, 100 nM of UPL probe (Roche Diagnostics, Penzberg, Germany), 200 nM of forward primer and reverse primer, 0.1 ul RNAseout (Invitrogen), and 0.025 ul RTIII enzyme (Invitrogen) in a total volume of 10 μl. PCR parameters were as follows: 50° C. for 40 min, then 45 cycles of PCR at 95° C. for 10 s, 60° C. for 10 s, and 72° C. for 2 s. Data were analyzed by LC480 software (Roche Diagnostics, Penzberg, Germany). The relative amount of EGFR mRNA was normalized to ACTB mRNA. The sequences of PCR primers are as follows: […]
# To examine the allele selectivity of DzT790M-1, EGFR mRNA knockdown efficiency was detected in two cell lines harboring wild-type EGFR (A549, CL1-5) and two cell lines containing EGFR T790M mutation (H1975, CL97). A549, CL1-5, H1975, or CL97 was seeded onto 6-well at 3×10^5 cells/well and cultured overnight. […]
# Then, A549 and PC9 cells were separately treated with 50, 100, or 150 nM control DNAzyme or DzEGFR—ΔE746-A750 with Lipofectamine 2000 for 48 h. […] Quantitative RT-PCR was performed on 40 ng total mRNA with the LightCycler 480 system (Roche). […] Data were analyzed by LC480 software (Roche Diagnostics). […]
# [1] = tested on: A549 cells (wild type EGFR); experiment: Cell proliferation (MTT); conditions: 150 nM of DNAzyme, 48 h
# Method: (§2) Then, cells were separately treated with 50, 100, or 150 nM control DNAzyme or DzEGFR—ΔE746-A750 with Lipofectamine 2000 for 48 h.
# [2] = tested on: PC9 cells (E746-A750 deletion EGFR); experiment: Cell proliferation (MTT); conditions: 48 h, DzControl-treated group as 0% death
# Method: as §2
# [3] = tested on: EGFR E746-A750 deletion mRNA; experiment: Quantitative RT-PCR of EGFR mRNA in PC9 cells; conditions: 50, 100, or 150 nM, 48 h, DzControl-treated group as 100% expression
# Method: Then, A549 and PC9 cells were separately treated with 50, 100, or 150 nM control DNAzyme or DzEGFR—ΔE746-A750 with Lipofectamine 2000 for 48 h. A549 and H1975 cells were separately treated with 100 nM control DNAzyme or different DzL858Rs with Lipofectamine 2000 for 48 h. RNA purification was done by conventional TRIzol® (Invitrogen Corp., Grand Island, N.Y.) method following manufacturer's protocol. Quantitative RT-PCR was performed on 40 ng total mRNA with the LightCycler 480 system (Roche). The PCR mix contained 5 μl of 2× ProbeMaster mix, 100 nM of UPL probe (Roche Diagnostics, Penzberg, Germany) and 200 nM of primer (each) in a total volume of 10 μl. The PCR conditions were 95° C. for 10 min, followed by 60 cycles at 95° C. for 10 s, 60° C. for 10 s, and 72° C. for 2 s. Data were analyzed by LC480 software (Roche Diagnostics). The relative amount of EGFR mRNA was normalized to ACTB mRNA. The sequences of PCR primers are as follows: […]
# wild-type EGFR = experiment: Western immunoblotting of EGFR expression and downstream signaling in wild-type EGFR cell lines; conditions: A549 and CL1-5 cells, 100 nM
# Method: A549, CL1-5, H1975, or CL97 was seeded onto 6-well at 3×10^5 cells/well and cultured overnight. Then, cells were separately treated with 100 nM DzControl or DzT790M-1 with lipofectamine 2000 (Invitrogen). The transfected A549 and CL1-5 cells were serum-starved for 24 h and treated with 100 ng/ml of EGF at 37° C. for 15 min. 72 h after transfection, cell were collected for analysis. Cells were washed twice by ice-cold PBS and then total protein was extracted by RIPA buffer with protease inhibitor (Roche). 50 μg of total protein from the supernatants were boiled for 5 min at 95° C. The samples were resolved on 10% SDS-PAGE gel and transferred onto nitrocellulose membranes. EGFR expression and downstream signaling were detected by using primary antibodies specific to human pEGFR(Y1068) (Cell signaling), tEGFR (Santa Cruz), pSTAT3 (Y705) (Cell signaling), tSTAT3 (Cell signaling), pAKT (5473)(Cell signaling), tAKT (Santa Cruz), pERK (T202/Y204) (Cell signaling), tERK (Santa Cruz), and cleaved PARP (Cell signaling) at 1:1000 dilution and β-actin (Santa Cruz) at 1:10000 dilution, respectively. Secondary antibodies against rabbit IgG or mouse IgG was used at 1:5000 dilution. Protein bands on membrane were visualized by exposure to the chemiluminescence substrate.
# EGFR belongs to receptor tyrosine kinases. The binding of its extracellular ligands triggers receptor dimerization, tyrosine residues phosphorylation, and downstream signaling activation including signal transducer and activator of transcription 3 (STAT3), Akt, extracellular signal regulated kinases (ERK), and others. To examine the effects of DzT790M on protein expression level of EGFR and its downstream signaling, western immunoblotting was performed on DzT790M transfected cells. A549, CL1-5, H1975, or CL97 was seeded onto 6-well at 3×10^5 cells/well and cultured overnight. Then, cells were separately treated with 100 nM DzControl or DzT790M-1 with lipofectamine 2000 (Invitrogen). The transfected A549 and CL1-5 cells were serum-starved for 24 h and treated with 100 ng/ml of EGF at 37° C. for 15 min. 72 h after transfection, cell were collected for analysis. Cells were washed twice by ice-cold PBS and then total protein was extracted by RIPA buffer with protease inhibitor (Roche). […] Also, activation of downstream STAT3, AKT, and ERK signaling after EGF treatment were not inhibited by DzT790M-1 or DzT790M-2 transfection.
# CL1-5 (EGFR wild-type) or H1975 (EGFR T790M) were seeded onto 6-well at 3×10^5 cells/well and cultured overnight. […] The transfected CL1-5 cells were serum-starved for 24 h and treated with 100 ng/ml of EGF at 37° C. for 15 min. 72 h after transfection, cells were collected for western blotting analysis following the above mentioned procedure. […]
substance,measurement,setting,value
DzControl: control DNAzyme not complementary to any mRNA in human cells: CATCGGAGGCTAGCTACAACGAGACAGCTG (DNA dC*dAdTdCdGdGdAdGdGdCdTdAdGdCdTdAdCdAdAdCdGdAdGdAdCdAdGdCdT*dG; further chemistry not fully specified) [reference compound],apoptotic cells,H1975 cells,3.6%
same,dead cells (annexin V and PI double positive),H1975 cells,12.4%
same,percentage of apoptotic cells in whole cell population,CL97 cells,5.2%
same,percentage of dead cells in whole cell population,CL97 cells,17%
"DzEGFR—ΔE746-A750: DNAzyme against EGFR E746-A750 deletion: GGAGATGTGTCAGCTGACTCGAATGATAGCGAC (DNA, backbone and methylation of C not given here)",binding and action on wild type EGFR,wild-type EGFR mRNA,did not bind and act
same,viability of A549 cells affected,[1],20%
same,death of PC9 cells,[2],60%
same,mutant EGFR expression,[3],suppressed
"DzT790M-2: 10-23 DNAzyme against EGFR T790M mRNA, arms 8/8: GAGCTGCAGGCTAGCTACAACGAGATGAGCT (DNA, backbone and methylation of C not given here)","activation of downstream STAT3, AKT, and ERK signaling after EGF treatment",wild-type EGFR; 100 ng/ml EGF 15 min,not inhibited
same,protein level of EGFR compared to DzControl group,wild-type EGFR; 72 h after transfection,did not decreased
